Laboratory results as given in the supplement of paper PMC10307832.

Tests used:
Test in all cases: relative viability (nuclei count vs DMSO), 5 days (fraction); higher = more cells survive
CAL-12T = system: CAL-12T
Procedure, shortened: (§1)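 Cells from lung cancer lines were seeded into 1536-well plates and, one day later, dosed by pin tool. Treatments were either a single drug or a fixed dose of an anchor drug with five library-drug doses (not always all listed) in √10 steps. After 5 days, nuclei were stained in a one-step fixation (final 0.05% Triton X-100, 1% formaldehyde, 1 ug/ml Hoechst) and counted on 4× images, and relative viability is the treated-to-vehicle nuclei ratio, as the median of duplicate plates.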

COR-L 105 = system: COR-L 105
Procedure, shortened: as §1

ChaGo-K-1 = system: ChaGo-K-1
Procedure, shortened: as §1

EKVX = system: EKVX
Procedure, shortened: as §1

EPLC-272H = system: EPLC-272H
Procedure, shortened: as §1

H3255 = system: H3255
Procedure, shortened: as §1

HCC-366 = system: HCC-366
Procedure, shortened: as §1

HCC-827 = system: HCC-827
Procedure, shortened: as §1

NCI-H1355 = system: NCI-H1355
Procedure, shortened: as §1

NCI-H1792 = system: NCI-H1792
Procedure, shortened: as §1

NCI-H1975 = system: NCI-H1975
Procedure, shortened: as §1

NCI-H1993 = system: NCI-H1993
Procedure, shortened: as §1

NCI-H2009 = system: NCI-H2009
Procedure, shortened: as §1

NCI-H2085 = system: NCI-H2085
Procedure, shortened: as §1

NCI-H2087 = system: NCI-H2087
Procedure, shortened: as §1

NCI-H2228 = system: NCI-H2228
Procedure, shortened: as §1

NCI-H322M = system: NCI-H322M
Procedure, shortened: as §1

NCI-H441 = system: NCI-H441
Procedure, shortened: as §1

NCI-H460 = system: NCI-H460
Procedure, shortened: as §1

SK-MES-1 = system: SK-MES-1
Procedure, shortened: as §1

## CCNC(=O)c1noc(-c2cc(C(C)C)c(O)cc2O)c1-c1ccc(CN2CCOCC2)cc1 [Luminespib] + CC1(C)CCC(c2ccc(Cl)cc2)=C(CN2CCN(c3ccc(C(=O)NS(=O)(=O)c4ccc(N[C@H](CCN5CCOCC5)CSc5ccccc5)c(S(=O)(=O)C(F)(F)F)c4)cc3)CC2)C1 [Navitoclax] (partner 0.5 µM)
CAL-12T; first compound 0.002 µM
  relative viability: 1.47
CAL-12T; first compound 0.006325 µM
  relative viability: 1.23
CAL-12T; first compound 0.02 µM
  relative viability: 0.491
CAL-12T; first compound 0.06325 µM
  relative viability: 0.106
CAL-12T; first compound 0.2 µM
  relative viability: 0.116
COR-L 105; first compound 0.002 µM
  relative viability: 0.729
COR-L 105; first compound 0.006325 µM
  relative viability: 0.696
COR-L 105; first compound 0.02 µM
  relative viability: 1.12
COR-L 105; first compound 0.06325 µM
  relative viability: 0.278
COR-L 105; first compound 0.2 µM
  relative viability: 0.234
ChaGo-K-1; first compound 0.002 µM
  relative viability: 1.1
ChaGo-K-1; first compound 0.02 µM
  relative viability: 0.932
ChaGo-K-1; first compound 0.06325 µM
  relative viability: 0.41
ChaGo-K-1; first compound 0.2 µM
  relative viability: 0.311
EKVX; first compound 0.002 µM
  relative viability: 0.922
EKVX; first compound 0.006325 µM
  relative viability: 0.801
EKVX; first compound 0.02 µM
  relative viability: 0.677
EKVX; first compound 0.06325 µM
  relative viability: 0.518
EKVX; first compound 0.2 µM
  relative viability: 0.0817
EPLC-272H; first compound 0.006325 µM
  relative viability: 0.831
EPLC-272H; first compound 0.02 µM
  relative viability: 0.782
EPLC-272H; first compound 0.06325 µM
  relative viability: 1.11
EPLC-272H; first compound 0.2 µM
  relative viability: 1.28
H3255; first compound 0.002 µM
  relative viability: 0.517
H3255; first compound 0.006325 µM
  relative viability: 0.511
H3255; first compound 0.02 µM
  relative viability: 0.272
H3255; first compound 0.06325 µM
  relative viability: 0.536
H3255; first compound 0.2 µM
  relative viability: 0.112
HCC-366; first compound 0.002 µM
  relative viability: 1.11
HCC-366; first compound 0.006325 µM
  relative viability: 0.981
HCC-366; first compound 0.02 µM
  relative viability: 0.966
HCC-366; first compound 0.06325 µM
  relative viability: 0.0276
HCC-366; first compound 0.2 µM
  relative viability: 0.0215
HCC-827; first compound 0.002 µM
  relative viability: 1.07
HCC-827; first compound 0.006325 µM
  relative viability: 1.02
HCC-827; first compound 0.02 µM
  relative viability: 1.04
HCC-827; first compound 0.06325 µM
  relative viability: 1.01
HCC-827; first compound 0.2 µM
  relative viability: 1
NCI-H1355; first compound 0.002 µM
  relative viability: 0.983
NCI-H1355; first compound 0.006325 µM
  relative viability: 0.896
NCI-H1355; first compound 0.02 µM
  relative viability: 0.473
NCI-H1355; first compound 0.06325 µM
  relative viability: 0.987
NCI-H1355; first compound 0.2 µM
  relative viability: 0.968
NCI-H1792; first compound 0.002 µM
  relative viability: 0.535
NCI-H1792; first compound 0.006325 µM
  relative viability: 0.497
NCI-H1792; first compound 0.02 µM
  relative viability: 0.539
NCI-H1792; first compound 0.06325 µM
  relative viability: 0.32
NCI-H1792; first compound 0.2 µM
  relative viability: 0.216
NCI-H1975; first compound 0.002 µM
  relative viability: 1.17
NCI-H1975; first compound 0.006325 µM
  relative viability: 1.06
NCI-H1975; first compound 0.02 µM
  relative viability: 0.877
NCI-H1975; first compound 0.06325 µM
  relative viability: 0.218
NCI-H1975; first compound 0.2 µM
  relative viability: 0.142
NCI-H1993; first compound 0.002 µM
  relative viability: 0.937
NCI-H1993; first compound 0.006325 µM
  relative viability: 1.02
NCI-H1993; first compound 0.02 µM
  relative viability: 0.762
NCI-H1993; first compound 0.06325 µM
  relative viability: 0.644
NCI-H1993; first compound 0.2 µM
  relative viability: 0.466
NCI-H2009; first compound 0.002 µM
  relative viability: 1.17
NCI-H2009; first compound 0.006325 µM
  relative viability: 1.08
NCI-H2009; first compound 0.02 µM
  relative viability: 1.21
NCI-H2009; first compound 0.06325 µM
  relative viability: 0.72
NCI-H2009; first compound 0.2 µM
  relative viability: 0.0895
NCI-H2085; first compound 0.002 µM
  relative viability: 1.15
NCI-H2085; first compound 0.006325 µM
  relative viability: 1.13
NCI-H2085; first compound 0.02 µM
  relative viability: 1.14
NCI-H2085; first compound 0.06325 µM
  relative viability: 0.677
NCI-H2085; first compound 0.2 µM
  relative viability: 0.503
NCI-H2087; first compound 0.002 µM
  relative viability: 1.03
NCI-H2087; first compound 0.006325 µM
  relative viability: 0.871
NCI-H2087; first compound 0.02 µM
  relative viability: 0.911
NCI-H2087; first compound 0.06325 µM
  relative viability: 0.202
NCI-H2087; first compound 0.2 µM
  relative viability: 0.202
NCI-H2228; first compound 0.002 µM
  relative viability: 0.836
NCI-H2228; first compound 0.006325 µM
  relative viability: 0.637
NCI-H2228; first compound 0.02 µM
  relative viability: 0.614
NCI-H2228; first compound 0.06325 µM
  relative viability: 0.11
NCI-H2228; first compound 0.2 µM
  relative viability: 0.144
NCI-H322M; first compound 0.002 µM
  relative viability: 1.14
NCI-H322M; first compound 0.006325 µM
  relative viability: 1.09
NCI-H322M; first compound 0.02 µM
  relative viability: 1.02
NCI-H322M; first compound 0.06325 µM
  relative viability: 1.16
NCI-H322M; first compound 0.2 µM
  relative viability: 1.28
NCI-H441; first compound 0.002 µM
  relative viability: 0.714
NCI-H441; first compound 0.006325 µM
  relative viability: 0.648
NCI-H441; first compound 0.02 µM
  relative viability: 0.626
NCI-H441; first compound 0.06325 µM
  relative viability: 0.121
NCI-H441; first compound 0.2 µM
  relative viability: 0.161
NCI-H460; first compound 0.002 µM
  relative viability: 1.23
NCI-H460; first compound 0.006325 µM
  relative viability: 1.01
NCI-H460; first compound 0.02 µM
  relative viability: 0.0537
NCI-H460; first compound 0.06325 µM
  relative viability: 0.0176
NCI-H460; first compound 0.2 µM
  relative viability: 0.0134
SK-MES-1; first compound 0.002 µM
  relative viability: 1.27
SK-MES-1; first compound 0.006325 µM
  relative viability: 1.24
SK-MES-1; first compound 0.02 µM
  relative viability: 1.28
SK-MES-1; first compound 0.06325 µM
  relative viability: 0.149
SK-MES-1; first compound 0.2 µM
  relative viability: 0.131
